Like-named read-outs stand apart in the source and are kept apart here. Marks after values point to notes of the source that are not given here.
What was measured:
[1] = β-Carotene Bleaching test (BCB); settings: n = 3; for BCB IC50 (95% confidence limits): pure compounds tested at the concentration naturally present within the EO, n.r. = IC50 not reached
Description: (§1) The antioxidant and anti-inflammatory properties of S. oleosum and its major bioactive compounds were evaluated using different in vitro assays based on different mechanisms and reaction environments according to Smeriglio et al.. Results were expressed as the concentration required to inhibit 50% of the oxidative or inflammatory activity (IC50, µg/mL), with corresponding 95% confidence limits (C.L.) calculated using the Litchfield and Wilcoxon method with PHARM/PCS software (version 4; Consulting, Wynnewood, PA, USA).
In brief, 200 µL of EO (0.094–1.5 mg/mL), its main bioactive compounds (0.0289–0.4619 mg/mL, 0.0251–0.4019 mg/mL, 0.010–0.1604 mg/mL, and 0.0092–0.1479 mg/mL for terpinolene, β-pinene, α-pinene, and γ-terpinene), butylated hydroxytoluene (BHT, 1 mg/mL), or blank (0.1% DMSO) was added to 5 mL of β-carotene emulsion, prepared from 250 µL of β-carotene in ethyl acetate (1 mg/mL), 4 µL linoleic acid, and 40 µL Tween-40. An emulsion lacking β-carotene served as negative control. The mixtures were incubated at 50 °C for 2 h, and absorbance at 470 nm was measured at 20 min intervals using the same instrument as in Section TEAC Assay.

[2] = Iron-Chelating Activity assay (ICA); settings: n = 3; for ICA IC50 (95% confidence limits): pure compounds tested at the concentration naturally present within the EO, n.r. = IC50 not reached
Description: (§2) The antioxidant and anti-inflammatory properties of S. oleosum and its major bioactive compounds were evaluated using different in vitro assays based on different mechanisms and reaction environments according to Smeriglio et al..
After 5 min at RT, 50 µL of ferrozine solution (5 mM) and deionized water were added to bring the total volume to 1.5 mL.

trypsin = target: T1, trypsin (Bos taurus, UniProt P00760); assay: Inhibition of protease activity (PIA); format: biochemical; settings: pure compounds tested at the concentration naturally present within the EO, n = 3, n.r. = IC50 not reached
T1 sequence (P00760 24-246): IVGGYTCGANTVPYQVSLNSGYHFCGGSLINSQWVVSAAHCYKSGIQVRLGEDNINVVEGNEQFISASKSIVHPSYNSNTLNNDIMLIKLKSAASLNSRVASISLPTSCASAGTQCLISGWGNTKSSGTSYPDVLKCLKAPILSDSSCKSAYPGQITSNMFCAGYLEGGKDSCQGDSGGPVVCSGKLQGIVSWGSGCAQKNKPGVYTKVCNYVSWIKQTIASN
Description: as §2
After a 20 min incubation at 37 °C, the reaction was halted with 400 µL of 2 M perchloric acid, followed by centrifugation at 3500 × g for 10 min.

BSA = BSA (Bos taurus, UniProt P02769); assay: Inhibition of protein denaturation (ADA); format: biochemical; settings: for ADA IC50 (95% confidence limits): pure compounds tested at the concentration naturally present within the EO, n = 3, n.r. = IC50 not reached
Sequence of BSA (P02769 25-607): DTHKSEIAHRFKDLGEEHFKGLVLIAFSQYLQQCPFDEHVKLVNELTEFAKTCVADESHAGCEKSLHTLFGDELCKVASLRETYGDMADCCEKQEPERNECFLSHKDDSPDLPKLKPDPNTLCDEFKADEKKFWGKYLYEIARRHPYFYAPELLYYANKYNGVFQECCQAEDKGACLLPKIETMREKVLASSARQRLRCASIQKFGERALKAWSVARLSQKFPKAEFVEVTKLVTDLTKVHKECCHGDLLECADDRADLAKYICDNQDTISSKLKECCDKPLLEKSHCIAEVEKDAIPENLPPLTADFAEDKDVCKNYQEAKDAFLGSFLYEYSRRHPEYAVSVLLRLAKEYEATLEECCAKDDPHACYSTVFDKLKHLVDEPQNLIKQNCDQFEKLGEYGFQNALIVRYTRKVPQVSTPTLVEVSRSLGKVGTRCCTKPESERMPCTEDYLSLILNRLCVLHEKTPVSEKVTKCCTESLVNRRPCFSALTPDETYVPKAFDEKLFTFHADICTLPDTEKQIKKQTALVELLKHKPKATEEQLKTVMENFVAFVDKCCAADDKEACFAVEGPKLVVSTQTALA

[3] = Trolox Equivalent Antioxidant Capacity assay (TEAC); settings: n = 3; for TEAC IC50 (95% confidence limits): pure compounds tested at the concentration naturally present within the EO, n.r. = IC50 not reached
Description: as §1
To generate the 2,2′-azino-bis (3-ethylbenzothiazoline-6-sulfonic acid) (ABTS) radical cation solution, ABTS^+ (1.7 mM) was incubated with potassium persulfate (4.3 mM) in a 1:5 (v/v) ratio in the dark at room temperature (RT) for 12 h. The resulting solution was diluted to achieve an absorbance of 0.7 ± 0.02 at 734 nm. For the assay, 10 µL of either EO (ranging from 0.313 to 5 mg/mL), its main bioactive compounds (0.096–1.54 mg/mL, 0.084–1.34 mg/mL, 0.033–0.535 mg/mL, and 0.031–0.493 mg/mL for terpinolene, β-pinene, α-pinene, and γ-terpinene) or Trolox (0.625–10 µg/mL) was added to 200 µL of the ABTS solution and incubated at RT for 6 min. The absorbance at 734 nm was measured using a Multiskan™ GO UV-Vis microplate reader (Thermo Scientific, Waltham, MA, USA).

[4] = Ferric Reducing Antioxidant Power assay (FRAP); settings: n = 3; for FRAP IC50 (95% confidence limits): pure compounds tested at the concentration naturally present within the EO, n.r. = IC50 not reached
Description: as §1
In this assay, 10 µL of EO (ranging from 0.313 to 5 mg/mL), its main bioactive compounds (0.096–1.54 mg/mL, 0.084–1.34 mg/mL, 0.033–0.535 mg/mL, and 0.031–0.493 mg/mL for terpinolene, β-pinene, α-pinene, and γ-terpinene) or Trolox (1.25–10 µg/mL) was mixed with 200 µL of FRAP reagent, pre-incubated at 37 °C. The reagent consisted of 10 mM 2,4,6-Tris (2-pyridyl)-s-triazine (TPTZ) in 40 mM HCl, 20 mM FeCl3·6H2O, and 300 mM acetate buffer (pH 3.6). The mixture was incubated for 4 min at RT in the dark before measuring absorbance at 593 nm with the same microplate reader used in Section TEAC Assay.

[5] = Oxygen Radical Absorbance Capacity assay (ORAC); settings: n = 3; for ORAC IC50 (95% confidence limits): pure compounds tested at the concentration naturally present within the EO, n.r. = IC50 not reached
Description: as §1
ORAC activity was evaluated by combining 20 µL EO (ranging from 0.003 to 0.05 mg/mL), its main bioactive compounds (0.0010–0.0154 mg/mL, 0.0008–0.0134 mg/mL, 0.0003–0.0053 mg/mL, and […] for terpinolene, β-pinene, α-pinene, and γ-terpinene) or Trolox (0.25–2 µg/mL) with 120 µL of fluorescein solution (117 nM). After a 15-min pre-incubation at 37 °C, 60 µL of freshly prepared 2,2′-azobis (2-amidinopropane) dihydrochloride (AAPH) solution (40 mM) was added to initiate peroxyl radical formation. Fluorescence decay was monitored every 30 s for 90 min using excitation at 485 nm and emission at 520 nm on a FLUOstar Omega microplate reader (BMG LABTECH, Ortenberg, Germany).

[6] = target: butyrylcholinesterase (BChE) (Equus caballus, UniProt P81908); assay: Cholinesterase inhibition, BChE; format: biochemical; settings: pure compounds tested at the concentration naturally present in the EO, three experiments, n.r. = IC50 not reached
Sequence of butyrylcholinesterase (BChE) (P81908 whole entry): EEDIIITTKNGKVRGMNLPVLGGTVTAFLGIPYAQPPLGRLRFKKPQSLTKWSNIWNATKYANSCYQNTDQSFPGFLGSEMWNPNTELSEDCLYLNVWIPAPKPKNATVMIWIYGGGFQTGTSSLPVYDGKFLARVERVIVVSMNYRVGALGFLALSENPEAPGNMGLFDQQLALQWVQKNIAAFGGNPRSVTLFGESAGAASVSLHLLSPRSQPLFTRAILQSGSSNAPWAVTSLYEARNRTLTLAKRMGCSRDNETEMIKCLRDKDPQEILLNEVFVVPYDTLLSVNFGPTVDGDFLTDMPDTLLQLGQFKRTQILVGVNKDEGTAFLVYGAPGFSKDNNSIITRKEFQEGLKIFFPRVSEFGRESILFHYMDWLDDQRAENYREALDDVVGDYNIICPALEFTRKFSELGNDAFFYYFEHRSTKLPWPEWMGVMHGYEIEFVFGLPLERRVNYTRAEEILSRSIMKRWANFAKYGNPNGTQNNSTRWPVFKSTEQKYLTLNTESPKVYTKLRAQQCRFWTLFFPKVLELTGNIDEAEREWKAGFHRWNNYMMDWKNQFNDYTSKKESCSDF
Description: (§3) The cholinesterase inhibitory activity was evaluated according to the method described by Zheng and co-workers.

[7] = target: acetylcholinesterase (AChE) (Electrophorus electricus, UniProt O42275); settings: pure compounds tested at the concentration naturally present in the EO, three experiments, n.r. = IC50 not reached
Sequence of acetylcholinesterase (AChE) (O42275 24-633): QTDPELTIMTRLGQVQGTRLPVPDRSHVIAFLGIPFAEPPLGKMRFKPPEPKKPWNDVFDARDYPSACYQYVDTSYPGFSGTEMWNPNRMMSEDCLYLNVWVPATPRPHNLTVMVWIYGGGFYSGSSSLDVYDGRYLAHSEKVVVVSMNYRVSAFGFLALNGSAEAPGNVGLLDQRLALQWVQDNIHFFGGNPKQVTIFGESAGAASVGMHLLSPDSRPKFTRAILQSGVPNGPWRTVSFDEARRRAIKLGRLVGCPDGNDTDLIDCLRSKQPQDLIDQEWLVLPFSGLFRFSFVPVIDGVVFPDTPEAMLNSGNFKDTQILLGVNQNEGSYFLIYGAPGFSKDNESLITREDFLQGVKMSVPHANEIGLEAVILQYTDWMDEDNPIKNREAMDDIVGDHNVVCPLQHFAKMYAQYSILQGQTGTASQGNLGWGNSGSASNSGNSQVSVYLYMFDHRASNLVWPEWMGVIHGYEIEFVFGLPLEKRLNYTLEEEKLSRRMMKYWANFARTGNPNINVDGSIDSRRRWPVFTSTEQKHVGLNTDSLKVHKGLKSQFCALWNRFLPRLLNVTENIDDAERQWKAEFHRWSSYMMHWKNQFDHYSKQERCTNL
Description: as §3

## Cc1cc(C(C)(C)C)c(O)c(C(C)(C)C)c1 [BHT, butylated hydroxytoluene]
[1]; RS BHT
  BCB IC50 (95% confidence limits), reference standard: 0.35 (0.17–80.58) *** µg/mL

## O=C(O)CN(CCN(CC(=O)O)CC(=O)O)CC(=O)O [EDTA]
[2]; RS EDTA
  ICA IC50 (95% confidence limits), reference standard: 5.72 (2.32–87.13) *** µg/mL

## CC1=CCC(=C(C)C)CC1 [Terpinolene]
[2]
  ICA IC50 (95% confidence limits): n.r.
[2]; listed as terpinolene
  ICA IC50 (95% confidence limits): no appreciable activity
trypsin
  PIA IC50 (95% confidence limits): did not reach the IC50 threshold
[1]
  BCB IC50 (95% confidence limits): 0.21 (0.10–0.45) mg/mL
BSA
  IC50: 2350 µM
[3]
  TEAC IC50 (95% confidence limits): n.r.
[3]; listed as terpinolene
  TEAC IC50 (95% confidence limits): neither compound reached 50% inhibition
[4]
  FRAP IC50 (95% confidence limits): n.r.
[4]; listed as terpinolene
  FRAP IC50 (95% confidence limits): neither compound reached 50% inhibition
[5]
  ORAC IC50 (95% confidence limits): 0.01 (0.00–0.04) mg/mL

## CC1=CCC(C(C)C)=CC1 [γ-Terpinene]
[2]
  ICA IC50 (95% confidence limits): no appreciable activity and n.r.
trypsin
  PIA IC50 (95% confidence limits): n.r.
trypsin; listed as γ-terpinene
  PIA IC50 (95% confidence limits): did not reach the IC50 threshold
[6]
  BChE IC50 ± standard deviation: n.r.
[6]; listed as γ-terpinene
  BChE IC50 ± standard deviation: failed to reach the IC50 threshold
[1]
  BCB IC50 (95% confidence limits): 0.02 (0.02–0.03) mg/mL
BSA
  IC50: 807 µM
[3]
  TEAC IC50 (95% confidence limits): n.r.
[4]
  FRAP IC50 (95% confidence limits): n.r.
[7]
  AChE IC50 ± standard deviation: n.r.
[7]; listed as γ-terpinene
  AChE IC50 ± standard deviation: did not achieve 50% inhibition
[5]
  ORAC IC50 (95% confidence limits): n.r.

## CC1=CCC2CC1C2(C)C (stereo not drawn) [α-Pinene]
[6]
  BChE IC50 ± standard deviation: n.r.
[6]; listed as α-pinene
  BChE IC50 ± standard deviation: failed to reach the IC50 threshold
[1]
  BCB IC50 (95% confidence limits): inactive and n.r.
BSA
  ADA IC50 (95% confidence limits): n.r.
BSA; listed as α-pinene
  ADA IC50 (95% confidence limits): did not reach 50% inhibition
[3]
  TEAC IC50 (95% confidence limits): n.r. ^b
[4]
  FRAP IC50 (95% confidence limits): n.r.
[5]
  ORAC IC50 (95% confidence limits): n.r.

## Cc1c(C)c2c(c(C)c1O)CCC(C)(C(=O)O)O2 (centres unmarked) [trolox]
[3]; RS trolox
  TEAC IC50 (95% confidence limits), reference standard: 3.78 (1.48–9.67) *** µg/mL
[4]; RS trolox
  FRAP IC50 (95% confidence limits), reference standard: 3.72 (1.60–8.66) *** µg/mL
[5]; RS trolox
  ORAC IC50 (95% confidence limits), reference standard: 0.68 (0.22–82.17) *** µg/mL

## C=C1CCC2CC1C2(C)C (stereo not drawn) [β-Pinene]
[2]
  ICA IC50 (95% confidence limits): 0.03 (0.01–0.13) mg/mL
trypsin
  PIA IC50 (95% confidence limits): did not reach the IC50 threshold and n.r.
[6]
  BChE IC50 ± standard deviation: n.r.
[6]; listed as β-pinene
  BChE IC50 ± standard deviation: failed to reach the IC50 threshold
[1]
  BCB IC50 (95% confidence limits): n.r.
[1]; listed as β-pinene
  BCB IC50 (95% confidence limits): inactive
BSA
  IC50: 2640 µM
[3]
  TEAC IC50 (95% confidence limits): neither compound reached 50% inhibition and n.r.
[4]
  FRAP IC50 (95% confidence limits): neither compound reached 50% inhibition and n.r.
[7]
  AChE IC50 ± standard deviation: n.r.
[7]; listed as β-pinene
  AChE IC50 ± standard deviation: did not achieve 50% inhibition
[5]
  ORAC IC50 (95% confidence limits): n.r.
